Measurements as given in patent US6417159B1 (Queen's University at Kingston, priority 1996, dated 2002).
Entries after “also recorded” stand apart in the source; their conditions may differ.

Tests used:
[1] = tested on: ED8 chick DRG neurons; assay: NGF-mediated neurite growth by ED8 chick DRG sensory neurons; assay type: cell-based
[2] = Precipitation out of aqueous solution; assay type: physicochemical
[3] = target: T1, p75^NTR (Rattus norvegicus, UniProt P07174); assay: [125I]NGF affinity cross-linking to p75NTR; assay type: binding; details: PC12 cells, 50 μM R3
T1 construct: endogenous in cells; host or cells: PC12
T1 sequence (P07174 30-425): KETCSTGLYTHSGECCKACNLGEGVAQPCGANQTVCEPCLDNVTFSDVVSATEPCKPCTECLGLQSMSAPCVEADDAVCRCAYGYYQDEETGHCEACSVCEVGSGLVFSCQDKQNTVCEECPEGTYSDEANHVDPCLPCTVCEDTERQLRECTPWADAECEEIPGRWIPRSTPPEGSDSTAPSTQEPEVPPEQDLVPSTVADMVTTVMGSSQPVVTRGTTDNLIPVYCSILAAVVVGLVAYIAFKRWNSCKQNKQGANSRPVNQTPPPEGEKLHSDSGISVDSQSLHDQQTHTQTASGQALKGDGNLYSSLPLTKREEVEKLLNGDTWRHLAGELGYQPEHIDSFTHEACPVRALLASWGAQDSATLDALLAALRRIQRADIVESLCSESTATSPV
Protocol: FIG. 7A illustrates the influence of peptide R3 on affinity cross-linking of TrkA and p75^NTR. Intact PC12 cells were treated with 50 μM R3 for 24 h (preinc.) in medium, harvested with CMF medium, and suspended at a concentration of 10^6·ml^−1 (or 10^7·m^−1 for immunoprecipitation studies) in HKR buffer. Cells were then incubated in the presence or absence of R3 (coinc.) for 15 min at 37° C. and cooled in ice. Cross-linking was performed by incubating cells with 1 nM [^125I]-NGF for 2 h at 4° C., adding EDC ([…]) and NHS (2 mM) or BS^3 (0.4 mM) as indicated, and incubating for 30 min at 25° C. Cells were washed three times in HKR buffer and the pellet dissolved in reducing SDS sample buffer or in lysis buffer (1% NP-40, 10% glycerol, 1 mM PMSF, 10 μg-ml^−1 aprotinin, 1 μg/ml leupeptin, […] o-vanadate in TBS) for immunoprecipitation (lanes 4 and 8). For immunoprecipitation, the cellular debris was removed by centrifugation and the supernatant incubated with 1 μg anti-p75^NTR monoclonal Ab 192 (Cedarlane Laboratories Ltd.) or 1 μg anti-TrkA polyclonal Ab (a gift from Dr. W. Mobley, University of California, San Francisco) for 4 h at 4° C. Immunoprecipates were isolated by incubating with 50 μl of a 50% solution of protein A-SEPHAROSE™ (anti-Trk) or goat anti-mouse agarose (Ab 192) for 2 h at 4° C. Precipitates were washed 3 times in lysis buffer and dissolved in sample buffer. […]

[4] = tested on: TrkA; assay: NGF-mediated TrkA tyrosine phosphorylation in PC12 cells; assay type: cell-based, rat; details: prior to or at the time of NGF exposure
Protocol: FIG. 7B illustrates the influence of peptide R3 on TrkA phosphorylation. PC12 cells were treated with R3 for 30 min or 24 h and suspended in HKR buffer at a concentration of 10^7·ml^−1. NGF (50 ng·ml^−1) was added where indicated and samples incubated for 15 min at 37° C. Cells were subsequently harvested by centrifugation and the pellets dissolved in lysis buffer and immunoprecipitated for TrkA as described. Immunoprecipitated proteins were separated using 7.5% polyacrylamide gels (Laemmli) and transblotted to PVDF membrane. The membrane was processed for anti-phosphotyrosine with HRP-conjugated antibody RC-20 as described by the manufacture's literature (Transduction Laboratories Ltd.).
TrkA phosphorylation was performed by a modification of the method of Kaplan et al. (1991 a and b). PC12 cells were harvested as described and suspended at a concentration of 10^7 ml in HKR buffer. NGF (100 ng·ml^−1) was added and the cell suspension was incubated for 30 min at 37° C. and pelleted at 4° C. The cells were solublized with lysis buffer, and TrkA protein was immunoprecipitated as described. Proteins were fractionated by 7.5% SDS-PAGE, and transferred to nitrocellulose for immunoblot analysis as described (Harlow and Lane, 1988). Phosphoproteins were visualized using anti-phosphotyrosine clone 4G10 (UBI) as described in the supplier's product literature.

[5] = tested on: ciliary neurons; assay: CNTF survival effect on ciliary neurons; assay type: cell-based
[6] = tested on: PC12 cells; assay: Basic fibroblast growth factor-mediated neurite growth by PC12 cells; assay type: cell-based, rat

Sequence: LDALLAALRRIQR [R3]
- % of Control Response DRG ([1]; (peptide with NGF − NGF alone)/(R3 with NGF − NGF alone) ×100, scored at 43, 44 and 48 hours, M ± SEM, n = 3 assays): 100 ± 16%
- Effect on NGF-mediated neurite growth, co-incubation, in words ([1]; ED8 chick DRG neurons, 10 μM R3): enhancing effect; also recorded: markedly increased the response to NGF between 4 and 8 hours
- Concentration at which the peptide tended to precipitate out of aqueous solution with time [2]: ≥ 50 µM
- Affinity cross-linking of [125I]NGF to p75NTR monomers or homodimers, in words [3]: not affected
- Influence on NGF-mediated tyrosine phosphorylation of TrkA, in words [4]: did not consistently influence
- Influence on survival effect of CNTF on ciliary neurons, in words [5]: no influence
- Influence on basic fibroblast growth factor-mediated neurite growth, in words [6]: no influence
